Reference: patent US20030203963A1, “Antimicrobial agent” (priority 2001, published 2003)

Legend:
Br. thermosphacta = assay: Test in milk; assay type: cell-based, Brochothrix thermosphacta; conditions: 2000 ppm, TMGB010605
Description: (§1) 8.9 ml samples of UHT milk containing 0.5% glucose and the indicator bromocresol purple (0.01%) were prepared and sterilised by autoclaving. The pH before APP addition was pH 6.65. Appropriate stock solutions of APP batch number APP20010215 (at 138 mg/ml) were prepared and filter sterilised. 1 ml of each was added to the milk to prepare tests containing 0, 1000 and 2000 ppm APP. Tests were then inoculated with 100 μl of diluted overnight broth cultures or spore suspensions to give a final inoculum level of ca. 10^3 cfu/ml. These and uninoculated tests were incubated at 20 and 8° C. and examined daily for visible changes compared to uninoculated control.

S. cerevisiae ATCC9763 = assay: Test in apple juice; assay type: cell-based, Saccharomyces cerevisiae; conditions: 2000 ppm; apple juice (pH 3.42) at 25° C., TAJ010530
Description: 8.9 ml apple juice samples (pH 3.42) were prepared and autoclaved. Batch number APP20010215 (at 138 mg/ml) was used to prepare filter-sterilised stock solutions for 1 ml addition to the juice to achieve 0, 1000, 2000 ppm APP. Tests were inoculated with 100 μl of an appropriately diluted overnight SLM broth of yeast culture or ascospore suspension of Byssochlamys spores prepared earlier. The tests were incubated at 25° C., and examined daily for signs of growth (e.g. turbidity, mycelium development).

TAVC = assay: Uninoculated test in raw meat; assay type: cell-based; conditions: 2000 ppm APP; for Viable counts: raw meat at 8° C.
Description: […] of raw minced beef was purchased from the local butcher. 10 g of either a 2% (20,000 ppm) stock solution of APP2001213 or water was added, and the meat mixed thoroughly. Initial counts were carried out, and then the meat was incubated at 8° C. and sampled for 3 consecutive days. The pH of the raw meat was 5.3.

[1] = test system: Saccharomyces cerevisiae ATCC 9763; assay: Well diffusion test; assay type: cell-based; conditions: 20 μl of 49.3 mg/ml (4.9%) APP sample E002012
Description: Seeded 10 ml agar plates of various test organisms were prepared, with inoculation of either 20 μl spore suspension or overnight broth. This gave an inoculum level of ca. 10^5-10^6 cfu/ml. After the plates had set, small wells were cut, and 20 μl of APP sample was loaded. Plates were incubated overnight at appropriate temperature and examined after 1-2 days (after which microbial growth is clearly visible) for zones of inhibition.

S. cerevisiae 9763 = assay: Chicken soup trial at 20° C.; assay type: cell-based, Saccharomyces cerevisiae; conditions: 2000 ppm; chicken soup at 20° C., TCSM010430, APP20010213
From the text: A local supermarket brand of cream of chicken soup was used as a model food system. 600 g packs were purchased from the local supermarket. This was a ‘fresh home-made type’ of soup that was stored in the chill cabinet, with a short shelf life. It was chosen because it is a rich, nutritious food system containing a range of food components including meat, dairy and vegetable.
Ingredients were labelled as: chicken stock (water, duck fat, chicken, salt, flavourings, yeast extracts, pork gelatine, glucose syrup, vegetable concentrate, milk protein, sugar, malto-dextrin, vegetable oil, citric acid, lactose, chicken fat), ilk, chicken (9%), cream (8%), onion, potato, vegetable oil, modified maize starch, wheat flour, lemon juice, salt, white pepper. pH 5.912. Protein: 3.3%; carbohydrate: 4.7%; fat: 7.2%; fibre: 0.2%; sodium: 0.1%
For the test the soup was mixed 2:1 in water (to facilitate sampling and mixing) and sterilised by autoclaving at 121° C. for 15 minutes. For each experiment the pH of the soup was recorded; this was between pH 5.79-5.88.
For TCS010430/20 (incubated at 20° C.) samples were prepared in 18.8 g quantities, to which 1 g of a suitable filter-sterilised APP stock solution was added and an appropriately diluted 0.2 ml inoculum. Great care was again taken to ensure homogeneous distribution of the APP and micro-organisms. […]

Ps. fluorescens = assay: Test in milk; assay type: cell-based, Pseudomonas fluorescens; conditions: for Control for: 2000 ppm, TMGB010605
Description: as §1

Ps. fluorescens 327 = assay: Bioscreen growth inhibition test; assay type: cell-based, Pseudomonas fluorescens; conditions: BS010510, 24 h/30, APP20010213
Description: (§2) For broth cultures and Bioscreen testing most bacteria were grown in Brain Heart Infusion (BHI, Oxoid, pH 7.4). Lactobacillus sake A10 was grown in de Man, Rogosa, Sharpe medium ([…], Oxoid). Yeasts were grown in Sabouraud Liquid medium (SLM, Oxoid). Most bacteria were cultured at 30° C. Lactic acid bacteria were grown on solid medium in enriched CO2 atmosphere. Clostridium species were grown in Reinforced Clostridial Medium (RCM) at 37° C. anaerobically. Brochothrix thermosphacta fungi and yeasts were grown at 25° C. Fungi were cultured on Malt Extract Agar (MEA, Oxoid).
(§3) An automated Microbiology Reader Bioscreen C was used to measure growth curves of the strains in the presence and absence of APP. The Bioscreen C measures the development of turbidity (i.e. growth) kinetically by vertical photometry in 200 wells of a honeycomb microtitre plate, simultaneously. The system consists of a Bioscreen C analyser, which is an incubator and measurement unit, integrated with a PC, software (BioLink v 5.30), printer and a ‘Honeycomb 2’ cuvette multiwell plate. Growth curve data can be analysed within the BioLink software or exported to programs such as Excel.
(§4) Broth culture media were dispensed in 270 μl volumes into the wells as directed. Serial dilutions of a filter-sterilised APP stock solution were then dispensed into the same wells, as appropriate. The wells were inoculated with 30 μl of an appropriately diluted overnight broth culture or spore suspension, to give a final inoculum level of […]. The tests were incubated in the Bioscreen C for either 24 h at 30° C., or 72 h at 25° C. (depending on the micro-organism under investigation) with readings taken every 20 minutes after the trays were shaken. After the incubation period was complete the data were exported to Excel for analysis.

Ps. fluorescens 1331 = assay: Bioscreen growth inhibition test; assay type: cell-based, Pseudomonas fluorescens; conditions: BS010510, 24 h/30, APP20010213
Description: as §2, §3, §4

Ps. fluorescens 3756 = assay: Bioscreen growth inhibition test; assay type: cell-based, Pseudomonas fluorescens; conditions: BS010411, 24 h/30° C.
Description: as §2, §3, §4

Ps. fluorescens 10460 = assay: Bioscreen growth inhibition test; assay type: cell-based, Pseudomonas fluorescens; conditions: BS010510, 24 h/30, APP20010213
Description: as §2, §3, §4

With `O=C1CC(CO)OC=C1O` (stereo not shown) [APP, Ascopyrone P] the “Control for” value (Br. thermosphacta; milk at 8° C.) was 1 days, the Control of growth (Br. thermosphacta; milk at 20° C.) was “No control observed” and the “Growth controlled for” value (S. cerevisiae ATCC9763) was 1 days. For the same compound, the Viable counts (TAVC; day 0, TRM010521) was 9.3 × 10^6 cfu/g, the Viable counts (TAVC; day 1, TRM010521) was 2.2 × 10^8 cfu/g and the Viable counts (TAVC; day 2, TRM010521) was 1.5 × 10^8 cfu/g. The Viable counts (TAVC; day 3, TRM010521) was 5.0 × 10^8 cfu/g, the “Counts in control and APP samples” value (TAVC; uninoculated raw meat at 8° C., pH 5.3) was “identical” and the “Sensitivity in well diffusion (zones of inhibition)” value [1] was “sensitive”. For the same compound, the Effect on growth (S. cerevisiae 9763) was “No effect with 2000 ppm”, the “Control for” value (Ps. fluorescens; milk at 8° C.) was over 7 days and the “Control for” value (Ps. fluorescens; milk at 20° C.) was 2 to 3 days. The “Total inhibition (effect on growth of target organism by 2000 ppm APP)” value (Ps. fluorescens; Milk at 8° C. pH 6.65) was “Ps. fluorescens”, the “Partial inhibition (effect on growth of target organism by 2000 ppm APP)” value (Ps. fluorescens; Milk at 20° C. pH 6.65) was “Ps. fluorescens” and the “APP level causing total inhibition” value (Ps. fluorescens 327) was 1000 ppm. For the same compound, the “APP level causing total inhibition” value (Ps. fluorescens 1331) was 1000 ppm, the “APP level causing significant inhibition” value (Ps. fluorescens 3756; APP 20010213) was 1000 ppm and the “APP level causing total inhibition” value (Ps. fluorescens 3756; APP 20010213) was 2000 ppm. The “APP level causing significant inhibition” value (Ps. fluorescens 3756; APP 20010215) was 1000 ppm, the “APP level causing total inhibition” value (Ps. fluorescens 3756; APP 20010215) was 2000 ppm and the “APP level causing significant inhibition” value (Ps. fluorescens 10460) was 1000 ppm. The “APP level causing total inhibition” value (Ps. fluorescens 10460) was 2000 ppm.
